Target: D2 (Homo sapiens, UniProt P14416)
Experiment: R-SAT broad profiling
Type: cell-based
Design: expressed in transfected cells; host or cells: NIH3T3
Details: read-out: pEC50 or pIC50 (converted)
Experimental: The functional receptor assay, Receptor Selection and Amplification Technology (R-SAT), was used (with minor modifications from that previously described U.S. Pat. No. 5,707,798) to screen compounds for efficacy at the 5-HT2A receptor. Briefly, NIH3T3 cells were grown in 96 well tissue culture plates to 70-80% confluence. Cells were transfected for 12-16 hours with plasmid DNAs using superfect (Qiagen Inc.) as per manufacture's protocols. R-SAT's were generally performed with 50 ng/well of receptor and 20 ng/well of Beta-galactosidase plasmid DNA. All receptor and G-protein constructs used were in the pSI mammalian expression vector (Promega Inc) as described in U.S. Pat. No. 5,707,798. The 5HT2A receptor gene was amplified by nested PCR from brain cDNA using the oligodeoxynucleotides based on the published sequence (see Saltzman et. al. Biochem. Biophys. Res. Comm. 181:1469-78 (1991)). Large-scale transfections, cells were transfected for 12-16 hours, then trypsinized and frozen in DMSO. Frozen cells were later thawed, plated at 10,000-40,000 cells per well of a 96 well plate that contained drug. With both methods, cells were then grown in a humidified atmosphere with 5% ambient CO2 for five days. Media was then removed from the plates and marker gene activity was measured by the addition of the beta-galactosidase substrate ONPG (in PBS with 5% NP-40). The resulting colorimetric reaction was measured in a spectrophotometric plate reader (Titertek Inc.)at […]. All data were analyzed using the computer program XLFit (IDBSm). Efficacy is the percent maximal repression compared to repression by a control compound (ritanserin in the case of 5HT2A). pIC50 is the negative of the log(IC50), where IC50 is the calculated concentration in Molar that produces 50% maximal repression.
The R-SAT assay (described above in example 289) was used to investigate the selectivity of 4-(4-Fluoro-benzyl)-3-(4-isobutoxy-benzyl)-8-methyl-1-oxa-3,8-diaza-spiro[4.5]decan-2-one.

D2, sequence (P14416 whole entry): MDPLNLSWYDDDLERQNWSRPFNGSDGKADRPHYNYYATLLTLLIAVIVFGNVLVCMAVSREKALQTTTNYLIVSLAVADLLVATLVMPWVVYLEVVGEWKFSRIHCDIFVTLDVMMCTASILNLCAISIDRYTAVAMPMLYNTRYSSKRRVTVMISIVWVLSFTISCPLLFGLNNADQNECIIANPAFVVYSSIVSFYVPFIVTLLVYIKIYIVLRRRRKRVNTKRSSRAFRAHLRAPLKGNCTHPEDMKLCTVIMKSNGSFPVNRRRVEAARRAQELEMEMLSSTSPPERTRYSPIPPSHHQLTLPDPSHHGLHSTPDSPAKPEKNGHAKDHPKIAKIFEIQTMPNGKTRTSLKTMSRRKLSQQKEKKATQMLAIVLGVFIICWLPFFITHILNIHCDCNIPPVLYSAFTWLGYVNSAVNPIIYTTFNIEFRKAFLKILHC

Q: How did the EC50 (agonist) turn out when `CC(C)COc1ccc(CN2C(=O)OC3(CCN(C)CC3)C2Cc2ccc(F)cc2)cc1.Cl` (racemic) [Example 69NLS75, 4-(4-Fluorobenzyl)-3-(4-isobutoxybenzyl)-8-methyl-1-oxa-3,8-diazaspiro[4.5]decan-2-one, hydrochloride] was run?
A: > 3.16 µM

Q: What about the IC50 (antagonist) of the same molecule?
A: > 3.16 µM

Source: patent US20080051429A1, “USE OF 4-AMINO-PIPERIDINES FOR TREATING SLEEP DISORDERS” (priority 2006, published 2008)
